Test results as given in paper PMC10246433 (Bioorganic & medicinal chemistry letters, 2023).
“Also recorded” adds a separate entry of the source.

How the values were obtained:
hNek2 kinase = target: T1, hNek2 kinase (Homo sapiens, UniProt P51955); test: ADP-Glo kinase assay, recombinant hNek2; type: biochemical
T1 sequence (P51955 1-445): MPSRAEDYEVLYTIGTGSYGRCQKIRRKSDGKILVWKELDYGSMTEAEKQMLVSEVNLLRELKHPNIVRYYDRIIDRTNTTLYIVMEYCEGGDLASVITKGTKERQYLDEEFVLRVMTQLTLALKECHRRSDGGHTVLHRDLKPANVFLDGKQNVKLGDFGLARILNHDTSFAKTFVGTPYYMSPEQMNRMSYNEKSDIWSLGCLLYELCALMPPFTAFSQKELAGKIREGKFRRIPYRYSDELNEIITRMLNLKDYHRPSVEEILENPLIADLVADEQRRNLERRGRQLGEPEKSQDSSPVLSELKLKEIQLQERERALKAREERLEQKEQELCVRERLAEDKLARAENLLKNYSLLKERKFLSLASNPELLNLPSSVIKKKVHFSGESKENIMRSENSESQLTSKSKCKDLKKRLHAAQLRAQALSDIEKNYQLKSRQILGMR

[1] = system: pAkt (Ser-473) in A549 cells; test: Western-blot analysis of pAkt; conditions: 24 h treatment, compared to DMSO
A549 lung cancer cells [2] = test: Wound-healing; conditions: 24 hr post-treatment, versus vehicle control
A549 lung cancer cells [3] = test: MTT cell viability assay, A549; conditions: Homo sapiens, A549, read-out: Cell viability EC50, A549 (Figure 6A legend)

CS(=O)(=O)N1CCC2(CC1)NCC(=O)N2 [Compound V0-1] was tested, and the “Loss of Nek2 inhibitory activity / increase of IC50 compared to V8” value (hNek2 kinase) was > 13 fold.

In the case of CN1CCC2(CC1)NCC(=O)N2 [Compound V0-3], the “Loss of Nek2 inhibitory activity / increase of IC50 compared to V8” value (hNek2 kinase) is reported as “significant loss of potency”.

With CS(=O)(=O)N1CCC2(CC1)N=C(c1ccc(Br)cc1)C(=O)N2 [Compound V8] the “Cellular levels of pAkt (Ser-473)” value [1] was “reduced levels of pAkt (Ser-473) in a dose-dependent manner”, the “Cell migration in wound-healing assay” value (A549 lung cancer cells [2]) was “migrated slower than the vehicle control; also recorded: Dose-dependent inhibiton of cell migration” and the EC50 (A549 lung cancer cells [3]) was 22.7 ± 0.2 µM. For the same compound, the “Mode of Nek2 inhibition” value (hNek2 kinase) was “competitive with respect to ATP, reversible, and selective; also recorded: selective, reversible and is not time dependent; also recorded: competitive inhibitor for ATP binding” and the “Selectivity towards Nek2 kinase over the other tested kinases” value (hNek2 kinase; versus other tested kinases (Table 1)) was 9- to 13 fold.
